Literature values, collected in patent US20240082296A1, “TREATMENT OF MUSCLE ATROPHY USING DEXTRAN SULFATE” (TX MEDIC AB, priority 2020, published 2024).

Test system: mouse model of muscle atrophy
Details: after 2 weeks of treatment; cited from earlier work

Substance: recombinant HGF: recombinant hepatocyte growth factor, a naturally occurring neuroprotective and myogenic growth factor
- increase in muscle mass: 18%
